Experimental data as given in patent publication US20240150843A1, “METHODS AND MATERIALS FOR IDENTIFYING MYELOMA STAGE AND DRUG SENSITIVITY AND TREATING MYELOMA” (Mayo Foundation for Medical Education and Research, priority 2021, published 2024).

What was measured:
JJN3 cells = assay: MTT assay, PBK inhibitor alone or combined with lenalidomide or bortezomib; assay type: cell-based, human; settings: JJN3 (IMiD resistant cell line)
Protocol: (§1) FIGS. 11A and 11B show MM cell growth and drug response after depletion of PRR11 using CRISPR-Cas9 technology or inhibition of PBK in HMCLs. (A) The lentivirus harboring non-targeting control (NS) and two PRR11 CRISPR gRNAs (#1 and #2) expressing cassette were used to infect two MM cell lines (JJN3 and […]). After confirming depletion of PRR11 in HMCLs by western blot (bottom), an MTT assay was performed to evaluate cell proliferation and drug response to lenalidomide or bortezomib in both control virus-transduced cells and cells with PRR11 depletion. Depletion of PRR11 neither changed MM cell proliferation nor affected lenalidomide and bortezomib sensitivity. (B) JJN3 and XG1LenRes, IMiD resistant cell lines, were treated with a PBK specific inhibitor, HI-TOPK-032 alone (Calbiochem) or combined with either lenalidomide (Len) or bortezomib (Bor) to evaluate synergy by the MTT assay. Inhibition of PBK activity using Hi-TOPK-032, enhanced both lenalidomide and bortezomib sensitivity in JJN3 and XG1LenRes cells.
(§2) Analysis of NM cell proliferation and drug response after modulating PRR11 expression and PBK1 activity: PRR11 and PBK1 expression also was associated with survival and drug response in the CoMMpass dataset. Using CRISPR-Cas9 technology, MM cell proliferation and drug response were investigated after depletion of PRR11. Briefly, the lentivirus harboring non-targeting control and two PRR11 CRISPR gRNA expressing cassettes were prepared and used to infect MM cell lines using methods described elsewhere (Ran et al., Nat Protoc 8(11):2281-2308, 2013; and Zhu et al., Cancer Res 77(16):4317-4327, 2017). After confirming depletion of PRR11 in HMCLs by western blot, an MTT assay was performed to evaluate cell proliferation and drug response to lenalidomide or bortezomib in both control virus-transduced cells and cells with PRR11 depletion. For PBK, JJN3 and XG1LenRes (IMiD resistant cell lines) were treated with a PBK specific inhibitor (HI-TOPK-032; Calbiochem; San Diego, CA) either alone or in combination with either lenalidomide or bortezomib to evaluate their effects by MTT assay.

XG1LenRes cells = assay: as above; assay type: cell-based, human; settings: XG1LenRes (IMiD resistant cell line)
Protocol: as §1, §2

N#Cc1c2nc3ccccc3nc2n2ccc(NC(=O)c3cccs3)cc12 [Hi-TOPK-032]
enhanced: bortezomib sensitivity (JJN3 cells; combined with bortezomib) | lenalidomide sensitivity (JJN3 cells; combined with lenalidomide) | bortezomib sensitivity (XG1LenRes cells; combined with bortezomib) | lenalidomide sensitivity (XG1LenRes cells; combined with lenalidomide)
